Assay results: patent publication US7592336B2, “Hepatitis C virus inhibitors” (Bristol-Myers Squibb Company, priority 2005, dated 2009)

How the values were obtained:
[1] = system: HCV replicon in HUH-7 cells; assay: HCV replicon FRET assay; type: cell-based, HCV strain 1b; details: Hepatitis C virus, Huh-7; HCV replicon cell assay; read-out: Activity Range (EC50)
Source text: An HCV replicon whole cell system was established as described by Lohmann V, Korner F, Koch J, Herian U, Theilmann L, Bartenschlager R., Science 285(5424):110-3 (1999). This system enabled us to evaluate the effects of our HCV Protease compounds on HCV RNA replication. Briefly, using the HCV strain 1b sequence described in the Lohmann paper (Assession number: AJ238799), an HCV cDNA was synthesized by Operon Technologies, Inc. (Alameda, Calif.), and the full-length replicon was then assembled in plasmid pGem9zf(+) (Promega, Madison, Wis.) using standard molecular biology techniques. The replicon consists of (i) the HCV 5′ UTR fused to the first 12 amino acids of the capsid protein, (ii) the neomycin phosphotransferase gene (neo), (iii) the IRES from encephalomyocarditis virus (EMCV), and (iv) HCV NS3 to NS5B genes and the HCV 3′ UTR. Plasmid DNAs were linearized with ScaI and RNA transcripts were synthesized in vitro using the T7 MegaScript transcription kit (Ambion, Austin, Tex.) according to manufacturer's directions. In vitro transcripts of the cDNA were transfected into the human hepatoma cell line, HUH-7. […] Resulting cell lines were characterized for positive and negative strand RNA production and protein production over time.
The HCV replicon FRET assay was developed to monitor the inhibitory effects of compounds described in the disclosure on HCV viral replication. HUH-7 cells, constitutively expressing the HCV replicon, were grown in Dulbecco's Modified Eagle Media (DMEM) (Gibco-BRL) containing 10% Fetal calf serum (FCS) (Sigma) and 1 mg/ml G418 (Gibco-BRL). Cells were seeded the night before (1.5×10^4 cells/well) in 96-well tissue-culture sterile plates. Compound and no compound controls were prepared in DMEM containing 4% FCS, 1:100 Penicillin/Streptomysin (Gibco-BRL), 1:100 L-glutamine and 5% DMSO in the dilution plate (0.5% DMSO final concentration in the assay). Compound/DMSO mixes were added to the cells and incubated for 4 days at 37° C. After 4 days, cells were first assessed for cytotoxicity using alamar Blue (Trek Diagnotstic Systems) for a CC50 reading. The toxicity of compound (CC50) was determined by adding 1/10th volume of alamar Blue to the media incubating the cells. After 4 h, the fluorescence signal from each well was read, with an excitation wavelength at 530 nm and an emission wavelength of 580 nm, using the Cytofluor Series 4000 (Perspective Biosystems). Plates were then rinsed thoroughly with Phosphate-Buffered Saline (PBS) (3 times 150 μl). The cells were lysed with 25 μl of a lysis assay reagent containing an HCV protease substrate (5× cell Luciferase cell culture lysis reagent (Promega #E153A) diluted to 1× with distilled water, NaCl added to 150 mM final, the FRET peptide substrate (as described for the enzyme assay above) diluted to 10 μM final from a 2 mM stock in 100% DMSO. […]. The plate was then placed into the Cytofluor 4000 instrument which had been set to 340 nm excitation/490 nm emission, automatic mode for 21 cycles and the plate read in a kinetic mode. EC50 determinations were carried out as described for the IC50 determinations.

[2] = target: T1, HCV NS3/4A protease complex, BMS strain (UniProt P27958, species not given/STRAIN_BMS); assay: FRET peptide assay to monitor HCV NS3/4A proteolytic activity (BMS strain); type: biochemical, HCV genotype 1a; details: NS3/4A BMS strain; read-out: Activity Range (IC50)
T1 construct: said of H77 and J4L6S, not expressly of BMS; fused on or other part: A three-lysine solubilising tail at the NS4A C-terminus and purification on Ni-NTA are described for the H77 and J4L6S constructs
Source text: HCV NS3 protease complexes, derived from the BMS strain, H77 strain or J4L6S strain, were generated, as described below. These purified recombinant proteins were generated for use in a homogeneous assay (see below) to provide an indication of how effective compounds of the present disclosure would be in inhibiting HCV NS3 proteolytic activity.
Serum from an HCV-infected patient was obtained from Dr. T. Wright, San Francisco Hospital. An engineered full-length cDNA (compliment deoxyribonucleic acid) template of the HCV genome (BMS strain) was constructed from DNA fragments obtained by reverse transcription-PCR (RT-PCR) of serum RNA (ribonucleic acid) and using primers selected on the basis of homology between other genotype 1a strains. From the determination of the entire genome sequence, a genotype 1a was assigned to the HCV isolate according to the classification of Simmonds et al. (See P Simmonds, K A Rose, S Graham, S W Chan, F McOmish, B C Dow, E A Follett, P L Yap and H Marsden, J. Clin. Microbiol., 31(6), 1493-1503 (1993)). […] The infectious clones, H77 (1a genotype) and J4L6S (1b genotype) were obtained from R. Purcell (NIH) and the sequences are published in Genbank (AAB67036, see Yanagi, M., Purcell, R. H., Emerson, S. U. and Bukh, J. Proc. Natl. Acad. Sci. U.S.A. 94(16), 8738-8743 (1997); AF054247, see Yanagi, M., St Claire, M., Shapiro, M., Emerson, S. U., Purcell, R. H. and Bukh, J, Virology 244 (1), 161-172. (1998)).
NS3/4A protease complex-containing fractions were pooled and loaded on a desalting column Superdex-S200 pre-equilibrated with buffer D (25 mM HEPES, pH 7.5, 20% glycerol, 300 mM NaCl, 0.2% Triton X-100, 10 mM βME). Sample was loaded at a flow rate of 1 mL/min. NS3/4A protease complex-containing fractions were pooled and concentrated to approximately 0.5 mg/ml. The purity of the NS3/4A protease complexes, derived from the BMS, H77 and J4L6S strains, were judged to be greater than 90% by SDS-PAGE and mass spectrometry analyses. The enzyme was stored at −80° C., thawed on ice and diluted prior to use in assay buffer.
The purpose of this in vitro assay was to measure the inhibition of HCV NS3 protease complexes, derived from the BMS strain, H77 strain or J4L6S strain, as described above, by compounds of the present disclosure. This assay provides an indication of how effective compounds of the present disclosure would be in inhibiting HCV NS3 proteolytic activity.
In order to monitor HCV NS3/4A protease activity, an NS3/4A peptide substrate was used. The substrate was RET S1 (Resonance Energy Transfer Depsipeptide Substrate; AnaSpec, Inc. cat #22991) (FRET peptide), described by Taliani et al. in Anal. Biochem. 240(2):60-67 (1996). The sequence of this peptide is loosely based on the NS4A/NS4B natural cleavage site for the HCV NS3 protease except there is an ester linkage rather than an amide bond at the cleavage site. The peptide also contains a fluorescence donor, EDANS, near one end of the peptide and an acceptor, DABCYL, near the other end. The fluorescence of the peptide is quenched by […] resonance energy transfer (RET) between the donor and the acceptor, but as the NS3 protease cleaves the peptide the products are released from RET quenching and the fluorescence of the donor becomes apparent.
The peptide substrate was incubated with one of the three recombinant NS3/4A protease complexes, in the absence or presence of a compound of the present disclosure. The inhibitory effects of a compound were determined by monitoring the formation of fluorescent reaction product in real time using a Cytofluor Series 4000.
Assay buffer: 50 mM HEPES, pH 7.5; 0.15M NaCl; 0.1% Triton; 15% Glycerol; 10 mM βME. Substrate: 2 μM final concentration (from a 2 mM stock solution in DMSO stored at −20° C.). HCV NS3/4A protease type 1a (1b), 2-3 nM final concentration (from a 5 μM stock solution in 25 mM HEPES, pH 7.5, 20% glycerol, 300 mM NaCl, 0.2% Triton-X100, 10 mM βME). […]

T1 sequence (P27958 1027-1657, change not shown, one chain of several): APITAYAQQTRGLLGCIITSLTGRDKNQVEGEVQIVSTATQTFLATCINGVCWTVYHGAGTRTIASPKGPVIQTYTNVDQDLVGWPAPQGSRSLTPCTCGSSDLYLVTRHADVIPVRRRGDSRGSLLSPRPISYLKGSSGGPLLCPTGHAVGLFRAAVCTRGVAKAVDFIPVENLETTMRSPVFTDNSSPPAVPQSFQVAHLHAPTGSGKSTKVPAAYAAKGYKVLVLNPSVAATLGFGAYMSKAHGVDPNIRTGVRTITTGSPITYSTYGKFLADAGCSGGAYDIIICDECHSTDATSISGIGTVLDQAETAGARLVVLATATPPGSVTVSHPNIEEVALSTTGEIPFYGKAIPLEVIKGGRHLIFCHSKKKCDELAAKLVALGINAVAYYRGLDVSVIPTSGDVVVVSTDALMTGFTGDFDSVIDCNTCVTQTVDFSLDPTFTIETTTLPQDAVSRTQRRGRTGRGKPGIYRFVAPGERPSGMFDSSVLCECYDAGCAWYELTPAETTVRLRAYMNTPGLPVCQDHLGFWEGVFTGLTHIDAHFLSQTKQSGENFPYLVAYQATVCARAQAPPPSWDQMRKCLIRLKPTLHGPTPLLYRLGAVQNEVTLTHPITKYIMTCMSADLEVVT

SMILES: C=C[C@@H]1C[C@]1(NC(=O)[C@@H]1C[C@@](O)(c2cccc(CN3CCOCC3)c2)CN1C(=O)[C@@H](NC(=O)OC(C)(C)C)C(C)(C)C)C(=O)NS(=O)(=O)C1CC1 [Compound 19]
- EC50 [1]: > 10000 nM
- IC50 [2]: 100 to 1000 nM

SMILES: C=C[C@@H]1C[C@]1(NC(=O)[C@@H]1C[C@@](O)(c2cccc(N(C)C)c2)CN1C(=O)[C@@H](NC(=O)OC(C)(C)C)C(C)(C)C)C(=O)NS(=O)(=O)C1CC1 [Compound 16]
- EC50 [1]: > 10000 nM
- IC50 [2]: 100 to 1000 nM

SMILES: C=C[C@@H]1C[C@]1(NC(=O)[C@@H]1C[C@@](O)(c2cccc(C(C)C)c2)CN1C(=O)[C@@H](NC(=O)OC(C)(C)C)C(C)(C)C)C(=O)NS(=O)(=O)C1CC1 [Compound 14]
- EC50 [1]: 1000 to 10000 nM
- IC50 [2]: 100 to 1000 nM

SMILES: C=C[C@@H]1C[C@]1(NC(=O)[C@@H]1C[C@@](O)(c2cccc(Cl)c2)CN1C(=O)[C@@H](NC(=O)OC(C)(C)C)C(C)(C)C)C(=O)NS(=O)(=O)C1CC1 [Compound 12]
- EC50 [1]: 1000 to 10000 nM
- IC50 [2]: 1 to 100 nM
